Key:
thioredoxin superfamily = assay: Screen for flavonoid compounds enhancing expression of thioredoxin superfamily in keratinocytes; assay type: cell-based; conditions: normal human epidermal keratinocytes, 10 μM, 24 hours; FIG. 3
Method: (§1) Normal human epidermal keratinocytes (KK-4009, KURABO) were cultured in Defined Keratinocyte-SFM medium (10744-019, GIBCO) with 5% CO2 under high humidity at 37° C. For the cells with 100% of final density, the medium was replaced with EpiLife™ Calcium-Free Phenol Red Free medium (M-EPICF/PRF-500, KURABO) whose calcium concentration had been adjusted to 1.5 mM. Twenty-four hours later, each of the following agents was added so as to have a final concentration of 10 μM.
Twenty-four hours after adding the above agents, the mRNA expression levels of the redox-associated factors were quantified by the same method as Example 1.

[1] = system: thioredoxin reductase and glutathione reductase; assay: mRNA expression of redox-associated factors in skin-equivalent models (q-PCR); assay type: cell-based, human; conditions: epidermal layer, 2 μM or 10 μM, 24 hours, FIG. 2
Method: Skin-equivalent models were made from normal human keratinocytes (Invitrogen), normal human fibroblasts (ATCC) and collagen I (Sigma), and cultured in Dulbecco's Modified Eagle's Medium (D-MEM) (Invitrogen) with 5% CO2 under high humidity at 37° C. Two μM or 10 μM kaempferol was added into the culture medium, and the models were cultured for twenty-four hours. Then RNA was isolated from epidermal layer of the skin-equivalent models by using a QIAGEN mRNA isolation kit. Subsequently, mRNAs of thioredoxin reductase and glutathione reductase, and 36B4 as an internal standard, were quantified by q-PCR (quantitative PCR by Bio-Rad MyiQ™ single color real time PCR detection system) using the Real-time PCR kit (Bio-Rad). The primers were purchased from QIAGEN (TXNRD2: #QT00070371; GSR; #QT00038325). The amounts of thioredoxin reductase and glutathione reductase were divided by the mRNA amount of 36B4 to obtain the mRNA expression level.

[2] = system: redox-associated factors (thioredoxin reductase, thioredoxin, glutathione reductase, glutaredoxin); assay: mRNA expression of redox-associated factors in normal human epidermal keratinocytes (RT-PCR); assay type: cell-based; conditions: 10 μM, 24 hours, compared with vitamin E and lipoic acid, FIG. 1
Method: as §1, with “kaempferol (K0018, Tokyo Chemical Industry Co., Ltd), vitamin E (95240, FULKA), or lipoic acid ((+/−)-α-lipoic acid (T1395, SIGMA)” for “each of the following agents”
Twenty-four hours after adding the above agents, RNA was isolated by using QIAZOL Lysis Reagent (79306, QIAGEN) and purified by using RNeasy Kit (74106, QIAGEN). Subsequently, mRNAs of thioredoxin reductase, thioredoxin, glutathione reductase, glutaredoxin, and the ribosomal protein as an internal standard were quantified by the LightCycler™ software (Roche) using QuantiTect™ SYBR Green RT-PCR Kit (204243, QIAGEN). The Sequences of the used primers are shown below.
The mRNA amounts of thioredoxin reductase, thioredoxin, glutathione reductase and glutaredoxin were divided by the mRNA amount of the ribosomal protein to obtain the mRNA expression levels.

thioredoxin reductase = assay: Thioredoxin reductase activity in lysates of treated keratinocytes; assay type: cell-based; conditions: normal human epidermal keratinocytes, 10 μM, 24 hours, relative to control; FIG. 5
Method: Normal human epidermal keratinocytes (KK-4009, KURABO) were cultured in Defined Keratinocyte-SFM medium (10744-019, GIBCO) with 5% CO2 under high humidity at 37° C. For the cells with 100% of final density, the medium was replaced with EpiLife™ Calcium-Free Phenol Red Free medium (M-EPICF/PRF-500, KURABO) whose calcium concentration had been adjusted to 1.5 mM. Twenty-four hours later, kaempferol (K0018, Tokyo Chemical Industry Co., Ltd) or quercetin (173-00403, Wako Pure Chemical Industries, Ltd.) was added so as to have a final concentration of 10 μM. Twenty-four hours after adding the agents, the cells were dissolved in lysis buffer, and the insoluble fraction was removed by centrifugation at 14,000 rpm, 4° C. for 15 minutes. The amount of total protein in the soluble fraction was quantified, and then thioredoxin reductase activity was measured by the method of Arne Holmgren et al. (METHODS IN ENZYMOLOGY, 1995, 252, 199-208).

IL1β = assay: Suppression of expression of inflammatory cytokine IL1β mRNA in keratinocytes; assay type: cell-based; conditions: normal human epidermal keratinocytes, kaempferol 10 μM, extracts 0.1%, 24 hours; FIG. 6
Method: Normal human epidermal keratinocytes (KK-4009, KURABO) were cultured in Defined Keratinocyte-SFM medium (10744-019, GIBCO) with 5% CO2 under high humidity at 37° C. For the cells with 100% of final density, the medium was replaced with EpiLifeTM Calcium-Free Phenol Red Free medium ([…]) in which calcium concentration had been adjusted to 1.5 mM. Twenty-four hours later, kaempferol was added to have 10 μM of final concentration and each of the following plant extracts was added to have a final concentration of 0.1%. kaempferol ([…], Tokyo Chemical Industry Co., Ltd); K. galanga extract: which is obtained by the extraction of Kaempferia galanga rhizomes with 50% 1,3-butylene glycol; Ginkgo leaf extract: which is obtained by resolving 50% ethanol extract from Ginkgo biloba L. leaves in 1,3-butylene glycol. Twenty-four hours after adding the above agents, RNA was isolated by the same method as Example 1, and the mRNA expression level of the inflammation-associated factor (IL1β) was quantified. The used primers are shown below. The mRNA amount of IL1β was divided by the mRNA amount of the ribosomal protein to obtain the mRNA expression level.

| Structure (SMILES) | expression of the thioredoxin superfamily (mRNA expression level) (thioredoxin superfamily) | expression of the redox-associated factors (mRNA expression level) [1] | expression of the redox-associated factors (mRNA expression level) [2] | thioredoxin reductase activity (thioredoxin reductase) | suppression of the inflammatory cytokine IL1β (mRNA expression level) (IL1β) |
| --- | --- | --- | --- | --- | --- |
| O=c1c(O)c(-c2cc(O)c(O)c(O)c2)oc2cc(O)cc(O)c12 [Myricetin, reference compound] | does not have such a function |  |  |  |  |
| O=c1c(O)c(-c2ccc(O)cc2)oc2cc(O)cc(O)c12 [kaempferol, Kaempferol] | significantly enhance | significantly enhanced | significantly enhanced | enhance | suppression |
| O=c1c(O)c(-c2ccc(O)c(O)c2)oc2cc(O)cc(O)c12 [quercetin, Quercetin] | significantly enhance |  |  | enhance |  |

— patent US20110189318A1, “METHODS FOR ENHANCING THE EXPRESSION OF INTRACELLULAR REDOX-ASSOCIATED FACTORS” (priority 2010, published 2011)
